# According to paper PMC7660650, “Chemical Starting Matter for HNF4α Ligand Discovery and Chemogenomics” (International Journal of Molecular Sciences, 2020):
# Several values for one entry are separate records, joined by “and”; a condition that tells them apart may be missing. Identical values can stand only once.
# Biological target: T1, Gal4-HNF4α (human HNF4α LBD) (Homo sapiens, UniProt P41235)
# T1 construct: uniprot entry: P41235-1, residues 142-377; expressed in transfected cells; host or cells: HEK293T
# T1 sequence (P41235 142-377): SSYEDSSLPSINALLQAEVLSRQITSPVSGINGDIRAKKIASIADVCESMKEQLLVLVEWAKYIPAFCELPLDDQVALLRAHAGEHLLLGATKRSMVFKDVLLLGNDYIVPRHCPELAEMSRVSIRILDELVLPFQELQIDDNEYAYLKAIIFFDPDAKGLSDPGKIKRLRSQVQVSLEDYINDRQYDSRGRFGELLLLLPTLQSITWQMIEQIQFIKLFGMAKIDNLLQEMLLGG
# Test: Hybrid Gal4-HNF4α reporter gene assay in transiently transfected HEK293T cells
# Format: cell-based
# Details: not given
row,SMILES,HNF4a-screening_activity_(mean_of_n=2)
1,"Oc1cccc2cccnc12 [Prestw-Frag-2592, Oc1cccc2cccnc12]",0.6969

# Same assay, conditions: Table S1, primary screening, 50 µM
row,SMILES,HNF4a-screening_activity_(mean_of_n=2)
1,"O=C1Nc2ccccc2Nc2ccccc21 [Prestw-Frag-1904, O=C1Nc2ccccc2Nc2ccccc12]",1.665 and 0.9141
2,"CCCOc1ccccc1C(=N)N [Prestw-Frag-1910, CCCOc1ccccc1C(N)=N]",1.045 and 1.109
3,"NCCOC(c1ccc(F)cc1)c1ccc(F)cc1 [Prestw-Frag-1925, NCCOC(c1ccc(F)cc1)c1ccc(F)cc1]",1.095 and 1.195
4,"CC(C)(C)NCC(O)c1ccccc1 (stereo not drawn) [Prestw-Frag-1929, CC(C)(C)NCC(O)c1ccccc1]",1.143
5,"OCCCN1CCN(c2ccccc2)CC1 [Prestw-Frag-1944, OCCCN1CCN(CC1)c1ccccc1]",1.133
6,"OCCN1CCN(c2ccccc2)CC1 [Prestw-Frag-1945, OCCN1CCN(CC1)c1ccccc1]",1.061
7,"CN1CCN(c2ccccc2)CC1 [Prestw-Frag-1946, CN1CCN(CC1)c1ccccc1]",1.048
8,"O=C(CCN1CCCCC1)c1ccccc1 [Prestw-Frag-1953, O=C(CCN1CCCCC1)c1ccccc1]",0.8568
9,"NS(=O)(=O)c1ccc(Cl)cc1 [Prestw-Frag-1977, NS(=O)(=O)c1ccc(Cl)cc1]",0.8584
10,"CCN(CC)CCOc1ccc(C(C)=O)cc1 [Prestw-Frag-2005, CCN(CC)CCOc1ccc(cc1)C(C)=O]",1.006
11,"O=C(O)C1(c2ccccc2)CCCC1 [Prestw-Frag-2049, OC(=O)C1(CCCC1)c1ccccc1]",0.9983
12,"NS(=O)(=O)c1ccc(C(=O)O)cc1 [Prestw-Frag-2123, NS(=O)(=O)c1ccc(cc1)C(O)=O]",0.9355
13,"CC(C)NCC(O)c1ccccc1 (stereo not drawn) [Prestw-Frag-2168, CC(C)NCC(O)c1ccccc1]",1.078
14,"COc1ccc(OC)c(C(C)O)c1 (stereo not drawn) [Prestw-Frag-2208, COc1ccc(OC)c(c1)C(C)O]",1.098
15,"COc1ccc(CN2CCNCC2)cc1 [Prestw-Frag-2212, COc1ccc(CN2CCNCC2)cc1]",1.195
16,"CS(=O)(=O)c1ccc(CO)cc1 [Prestw-Frag-2234, CS(=O)(=O)c1ccc(CO)cc1]",0.954
17,"CC(O)(c1ccccc1)c1ccccn1 (stereo not drawn) [Prestw-Frag-2237, CC(O)(c1ccccc1)c1ccccn1]",0.9394
18,"OC(c1ccccc1)c1ccccn1 (stereo not drawn) [Prestw-Frag-2238, OC(c1ccccc1)c1ccccn1]",0.8728
19,"CCCCOc1cc(C(=O)OC)ccc1N [Prestw-Frag-2253, CCCCOc1cc(ccc1N)C(=O)OC]",0.8932
20,"Nc1nc2ccccc2o1 [Prestw-Frag-2256, Nc1nc2ccccc2o1]",0.8277
21,"NC(=O)c1nc[nH]c1N [Prestw-Frag-2268, NC(=O)c1nc[nH]c1N]",0.9961
22,"OCc1ccncc1 [Prestw-Frag-2303, OCc1ccncc1]",0.9833
23,"N=C(N)CSCc1ccccc1 [Prestw-Frag-2348, NC(=N)CSCc1ccccc1]",1.134
24,"Clc1ccc(CNc2ccccn2)cc1 [Prestw-Frag-2356, Clc1ccc(CNc2ccccn2)cc1]",1.16

row,SMILES,HNF4a-screening_activity_(mean_of_n=2)
1,"O=C1c2ccccc2CN1c1ccccc1 [Prestw-Frag-2360, O=C1N(Cc2ccccc12)c1ccccc1]",1.345
2,"CCC(=O)Nc1ccc(CC(=O)O)cc1 [Prestw-Frag-2362, CCC(=O)Nc1ccc(CC(O)=O)cc1]",0.9958
3,"NC(=O)C(c1ccccc1)c1ccccc1 [Prestw-Frag-2366, NC(=O)C(c1ccccc1)c1ccccc1]",0.8824
4,"O=C(O)CCC(=O)Nc1ccccc1 [Prestw-Frag-2383, OC(=O)CCC(=O)Nc1ccccc1]",0.9265
5,"COC(=O)C(O)c1ccccc1 (stereo not drawn) [Prestw-Frag-2423, COC(=O)C(O)c1ccccc1]",1.193
6,"CCN(CCCCO)C(C)Cc1ccc(OC)cc1 (stereo not drawn) [Prestw-Frag-2440, CCN(CCCCO)C(C)Cc1ccc(OC)cc1]",1.361
7,"Nc1ccccn1 [Prestw-Frag-2443, Nc1ccccn1]",1.112
8,"COCCOC(=O)c1ccc(N)cc1 [Prestw-Frag-2453, COCCOC(=O)c1ccc(N)cc1]",1.565
9,"O=C1CCc2ccccc2N1 [Prestw-Frag-2464, O=C1CCc2ccccc2N1]",1.314
10,"Nc1ccccc1S(N)(=O)=O [Prestw-Frag-2473, Nc1ccccc1S(N)(=O)=O]",1.395
11,"CCOc1ccccn1 [Prestw-Frag-2477, CCOc1ccccn1]",1.372
12,"COC(=O)C(O)(c1ccccc1)C1CCCC1 (stereo not drawn) [Prestw-Frag-2484, COC(=O)C(O)(C1CCCC1)c1ccccc1]",1.411
13,"CC(=O)N(CCC(=O)O)c1ccccc1 [Prestw-Frag-2487, CC(=O)N(CCC(O)=O)c1ccccc1]",0.9613
14,"c1ccc2cnccc2c1 [Prestw-Frag-2493, c1ccc2cnccc2c1]",1.292
15,"COc1ccc(O)cc1O [Prestw-Frag-2499, COc1ccc(O)cc1O]",1.183
16,"c1cnccn1 [Prestw-Frag-2501, c1cnccn1]",1.207
17,"CC(=O)c1ccc(O)cc1O [Prestw-Frag-2506, CC(=O)c1ccc(O)cc1O]",0.9153
18,"OCc1ccc(O)cc1 [Prestw-Frag-2532, OCc1ccc(O)cc1]",1.028
19,"c1ccc(C2CCNCC2)cc1 [Prestw-Frag-2537, C1CC(CCN1)c1ccccc1]",0.9586
20,"Sc1nc2ccccc2[nH]1 [Prestw-Frag-2539, Sc1nc2ccccc2[nH]1]",1.302
21,"O=C(O)c1ccccn1 [Prestw-Frag-2541, OC(=O)c1ccccn1]",0.9518
22,"Oc1nsnc1N1CCOCC1 [Prestw-Frag-2562, Oc1nsnc1N1CCOCC1]",1.981
23,"ClC1(Cl)CC1c1ccccc1 (stereo not drawn) [Prestw-Frag-2566, ClC1(Cl)CC1c1ccccc1]",1.078
24,"COc1ccccc1N1CCN(CCCN)CC1 [Prestw-Frag-2569, COc1ccccc1N1CCN(CCCN)CC1]",1.212

row,SMILES,HNF4a-screening_activity_(mean_of_n=2)
1,"O=C(O)CNC(=O)c1ccccc1 [Prestw-Frag-2576, OC(=O)CNC(=O)c1ccccc1]",1.001
2,"O=C(O)COc1ccccc1 [Prestw-Frag-2577, OC(=O)COc1ccccc1]",1.064
3,"NC(=O)COc1ccccc1 [Prestw-Frag-2578, NC(=O)COc1ccccc1]",1.034
4,"O=C(O)Cc1ccccc1 [Prestw-Frag-2579, OC(=O)Cc1ccccc1]",1.086
5,"NC(=O)Cc1ccccc1 [Prestw-Frag-2580, NC(=O)Cc1ccccc1]",0.9823
6,"NC(=O)c1ccncc1 [Prestw-Frag-2587, NC(=O)c1ccncc1]",0.9347
7,"Clc1cccc2ncccc12 [Prestw-Frag-2593, Clc1cccc2ncccc12]",0.9438
8,"OC1c2ccccc2CCc2ccccc21 [Prestw-Frag-2600, OC1c2ccccc2CCc2ccccc12]",0.7017
9,"c1ccc(CCn2ccnc2)cc1 [Prestw-Frag-2608, C(Cn1ccnc1)c1ccccc1]",0.9707
10,"c1ccc(Cn2ccnc2)cc1 [Prestw-Frag-2620, C(c1ccccc1)n1ccnc1]",0.9802
11,"c1ccc(C(c2ccccc2)n2cncn2)cc1 [Prestw-Frag-2645, c1ncn(n1)C(c1ccccc1)c1ccccc1]",0.9885
12,"N#CC1(c2ccc(F)cc2)CCCCC1 [Prestw-Frag-2647, Fc1ccc(cc1)C1(CCCCC1)C#N]",0.99
13,"CC1(c2ccccc2)NC(=O)NC1=O (stereo not drawn) [Prestw-Frag-2652, CC1(NC(=O)NC1=O)c1ccccc1]",0.789
14,"Cc1ccc(C#N)c(=O)[nH]1 [Prestw-Frag-2669, Cc1ccc(C#N)c(=O)[nH]1]",0.9816
15,"O=C1CCCc2[nH]ccc21 [Prestw-Frag-2675, O=C1CCCc2[nH]ccc12]",1.012
16,"O=C(O)CCc1ncc(-c2ccccc2)o1 [Prestw-Frag-2693, OC(=O)CCc1ncc(o1)-c1ccccc1]",0.8237
17,"Cc1nc(-c2ccccc2)c(-c2ccccc2)o1 [Prestw-Frag-2695, Cc1nc(c(o1)-c1ccccc1)-c1ccccc1]",1.374
18,"COc1ccc(C(C)=O)c(O)c1 [Prestw-Frag-2701, COc1ccc(C(C)=O)c(O)c1]",1.01
19,"Oc1ccccc1C1CCCC1 [Prestw-Frag-2706, Oc1ccccc1C1CCCC1]",0.8607
20,"CN1C(=O)CCC1=O [Prestw-Frag-2713, CN1C(=O)CCC1=O]",0.9037
21,"N=C(N)NC(=N)Nc1ccc(Cl)cc1 [Prestw-Frag-2722, NC(=N)NC(=N)Nc1ccc(Cl)cc1]",0.8665
22,"CCCOc1ccc(C(=O)OCC)cc1N [Prestw-Frag-2724, CCCOc1ccc(cc1N)C(=O)OCC]",1.372
23,"CS(=O)(=O)Nc1ccccc1 [Prestw-Frag-2755, CS(=O)(=O)Nc1ccccc1]",0.9874
